Measured values published in PubChem BioAssay AID2060619 (Molecular Pharmacology Branch, DTP, NCI, 2025).
pIC50: −log10 of the molar value.

Test system: 323965-272-R-J2-PDC complex spheroid viability
Assay: Anticancer human tumor 323965-272-R-J2-PDC patient-derived pancreatic carcinoma cell line growth inhibition [CLK]
Details: for pIC50: curve of first compound; for viability, T/C: stronger effect = lower value
Summary of the method: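 Multi-cell-type spheroids combined patient-derived tumor cells with HUVEC endothelial cells and human mesenchymal stem cells. Paired agents were dosed in half-log steps down from about clinical Cmax, or from 10 microM where Cmax was unknown.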

[1] = second compound 0.0316 µM, first compound 0.0316 µM
[2] = second compound 0.0316 µM, first compound 0.1 µM
[3] = second compound 0.0316 µM, first compound 0.316 µM
[4] = second compound 0.0316 µM, first compound 1 µM
[5] = second compound 0.1 µM, first compound 0.0316 µM
[6] = second compound 0.1 µM, first compound 0.1 µM
[7] = second compound 0.1 µM, first compound 0.316 µM
[8] = second compound 0.1 µM, first compound 1 µM
[9] = second compound 0.316 µM, first compound 0.0316 µM
[10] = second compound 0.316 µM, first compound 0.1 µM
[11] = second compound 0.316 µM, first compound 0.316 µM
[12] = second compound 0.316 µM, first compound 1 µM
[13] = second compound 1 µM, first compound 0.0316 µM
[14] = second compound 1 µM, first compound 0.1 µM
[15] = second compound 1 µM, first compound 0.316 µM
[16] = second compound 1 µM, first compound 1 µM
[17] = second compound 3.16 µM, first compound 0.0316 µM
[18] = second compound 3.16 µM, first compound 0.1 µM
[19] = second compound 3.16 µM, first compound 0.316 µM
[20] = second compound 3.16 µM, first compound 1 µM
[21] = second compound 10 µM, first compound 0.0316 µM
[22] = second compound 10 µM, first compound 0.1 µM
[23] = second compound 10 µM, first compound 0.316 µM
[24] = second compound 10 µM, first compound 1 µM
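Note: spheroids exposed to agents for seven days before readout.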
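Throughout, for viability, T/C: percent of DMSO vehicle control wells so 100% = untreated growth.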

How did the pIC50 (second compound 0.0316 µM) turn out when `CC(=O)O[C@H]1C(=O)[C@@]2(C)[C@H]([C@H](OC(=O)c3ccccc3)[C@]3(O)C[C@H](OC(=O)[C@H](O)[C@@H](NC(=O)c4ccccc4)c4ccccc4)C(C)=C1C3(C)C)[C@]1(OC(C)=O)CO[C@@H]1C[C@@H]2O` + CNC(=O)c1ccc(Nc2nc(OC3CCCC3)c3c(-c4ccc5nc(C)oc5c4)c[nH]c3n2)c(OC)c1 was run?
Its pIC50 is greater than 7.50.

What about the pIC50 (second compound 0.1 µM) of the same molecule?
The pIC50 was greater than 7.50.

And the pIC50 (second compound 0.316 µM)?
The pIC50 was less than 5.00.

What about the pIC50 (second compound 1 µM) of the same molecule?
Its pIC50 is less than 5.00.

What about the pIC50 (second compound 3.16 µM) of the same molecule?
Its pIC50 is greater than 7.50.

What about the pIC50 (second compound 10 µM) of the same molecule?
The pIC50 was greater than 7.50.

What about the viability, T/C [1] of the same molecule?
Its viability, T/C is 32.8%.

What about the viability, T/C [2] of the same molecule?
Its viability, T/C is 40.5%.

And the viability, T/C [3]?
The viability, T/C was 34.4%.

And the viability, T/C [4]?
Its viability, T/C is 33.2%.

What about the viability, T/C (second compound 0.0316 µM, first compound 3.16 µM) of the same molecule?
Its viability, T/C is 33.1%.

What about the viability, T/C (second compound 0.0316 µM, first compound 10 µM) of the same molecule?
Its viability, T/C is 36.9%.

And the viability, T/C [5]?
The viability, T/C was 45.3%.

And the viability, T/C [6]?
Its viability, T/C is 42.7%.

And the viability, T/C [7]?
The viability, T/C was 41.9%.

And the viability, T/C [8]?
Its viability, T/C is 37.9%.

And the viability, T/C (second compound 0.1 µM, first compound 3.16 µM)?
Its viability, T/C is 38.5%.

And the viability, T/C (second compound 0.1 µM, first compound 10 µM)?
Its viability, T/C is 38.5%.

And the viability, T/C [9]?
Its viability, T/C is 66.5%.

And the viability, T/C [10]?
Its viability, T/C is 68.7%.

And the viability, T/C [11]?
Its viability, T/C is 62.7%.

What about the viability, T/C [12] of the same molecule?
The viability, T/C was 67.7%.

What about the viability, T/C (second compound 0.316 µM, first compound 3.16 µM) of the same molecule?
The viability, T/C was 68.5%.

What about the viability, T/C (second compound 0.316 µM, first compound 10 µM) of the same molecule?
The viability, T/C was 76.1%.

What about the viability, T/C [13] of the same molecule?
Its viability, T/C is 55.4%.

And the viability, T/C [14]?
Its viability, T/C is 60.1%.

What about the viability, T/C [15] of the same molecule?
The viability, T/C was 67.5%.

And the viability, T/C [16]?
The viability, T/C was 63.2%.

What about the viability, T/C (second compound 1 µM, first compound 3.16 µM) of the same molecule?
Its viability, T/C is 75.8%.

What about the viability, T/C (second compound 1 µM, first compound 10 µM) of the same molecule?
The viability, T/C was 74.5%.

What about the viability, T/C [17] of the same molecule?
The viability, T/C was 48.6%.

And the viability, T/C [18]?
Its viability, T/C is 53.5%.

And the viability, T/C [19]?
The viability, T/C was 49.8%.

What about the viability, T/C [20] of the same molecule?
Its viability, T/C is 56.1%.

And the viability, T/C (second compound 3.16 µM, first compound 3.16 µM)?
The viability, T/C was 65.3%.

And the viability, T/C (second compound 3.16 µM, first compound 10 µM)?
Its viability, T/C is 60.4%.

What about the viability, T/C [21] of the same molecule?
The viability, T/C was 44.6%.

What about the viability, T/C [22] of the same molecule?
Its viability, T/C is 49%.

What about the viability, T/C [23] of the same molecule?
The viability, T/C was 49.2%.

What about the viability, T/C [24] of the same molecule?
The viability, T/C was 55.8%.

And the viability, T/C (second compound 10 µM, first compound 3.16 µM)?
The viability, T/C was 68.7%.

What about the viability, T/C (second compound 10 µM, first compound 10 µM) of the same molecule?
Its viability, T/C is 60.4%.

`CCc1c2c(nc3ccc(O)cc13)-c1cc3c(c(=O)n1C2)COC(=O)[C@]3(O)CC` + CNC(=O)c1ccc(Nc2nc(OC3CCCC3)c3c(-c4ccc5nc(C)oc5c4)c[nH]c3n2)c(OC)c1 was tested. Which pIC50 (second compound 0.0316 µM) did it give?
Its pIC50 is 8.10.

And the pIC50 (second compound 0.1 µM)?
The pIC50 was 8.09.

What about the pIC50 (second compound 0.316 µM) of the same molecule?
Its pIC50 is 8.38.

What about the pIC50 (second compound 1 µM) of the same molecule?
The pIC50 was greater than 8.50.

What about the pIC50 (second compound 3.16 µM) of the same molecule?
The pIC50 was greater than 8.50.

What about the pIC50 (second compound 10 µM) of the same molecule?
The pIC50 was greater than 8.50.

What about the viability, T/C (second compound 0.0316 µM, first compound 0.00316 µM) of the same molecule?
The viability, T/C was 73.5%.

What about the viability, T/C (second compound 0.0316 µM, first compound 0.01 µM) of the same molecule?
The viability, T/C was 42.4%.

What about the viability, T/C [1] of the same molecule?
The viability, T/C was 33%.

What about the viability, T/C [2] of the same molecule?
The viability, T/C was 30.2%.

And the viability, T/C [3]?
Its viability, T/C is 24.4%.

And the viability, T/C [4]?
The viability, T/C was 23.4%.

What about the viability, T/C (second compound 0.1 µM, first compound 0.00316 µM) of the same molecule?
The viability, T/C was 61%.

And the viability, T/C (second compound 0.1 µM, first compound 0.01 µM)?
Its viability, T/C is 47.1%.

And the viability, T/C [5]?
The viability, T/C was 39%.

What about the viability, T/C [6] of the same molecule?
The viability, T/C was 29.9%.

And the viability, T/C [7]?
The viability, T/C was 25%.

And the viability, T/C [8]?
The viability, T/C was 24%.

What about the viability, T/C (second compound 0.316 µM, first compound 0.00316 µM) of the same molecule?
The viability, T/C was 54.1%.

What about the viability, T/C (second compound 0.316 µM, first compound 0.01 µM) of the same molecule?
Its viability, T/C is 38.7%.

What about the viability, T/C [9] of the same molecule?
The viability, T/C was 30%.

And the viability, T/C [10]?
The viability, T/C was 27.9%.

And the viability, T/C [11]?
Its viability, T/C is 18.4%.

What about the viability, T/C [12] of the same molecule?
Its viability, T/C is 16.8%.

What about the viability, T/C (second compound 1 µM, first compound 0.00316 µM) of the same molecule?
Its viability, T/C is 34.8%.

And the viability, T/C (second compound 1 µM, first compound 0.01 µM)?
Its viability, T/C is 25.8%.

What about the viability, T/C [13] of the same molecule?
Its viability, T/C is 21.9%.

And the viability, T/C [14]?
Its viability, T/C is 16.6%.

What about the viability, T/C [15] of the same molecule?
The viability, T/C was 15.2%.

And the viability, T/C [16]?
Its viability, T/C is 10.9%.

What about the viability, T/C (second compound 3.16 µM, first compound 0.00316 µM) of the same molecule?
Its viability, T/C is 30.9%.

What about the viability, T/C (second compound 3.16 µM, first compound 0.01 µM) of the same molecule?
The viability, T/C was 30.1%.

And the viability, T/C [17]?
Its viability, T/C is 25.3%.

And the viability, T/C [18]?
The viability, T/C was 14.3%.

And the viability, T/C [19]?
Its viability, T/C is 17%.

And the viability, T/C [20]?
Its viability, T/C is 11.9%.

What about the viability, T/C (second compound 10 µM, first compound 0.00316 µM) of the same molecule?
Its viability, T/C is 30.5%.

What about the viability, T/C (second compound 10 µM, first compound 0.01 µM) of the same molecule?
Its viability, T/C is 23.6%.

What about the viability, T/C [21] of the same molecule?
The viability, T/C was 20.9%.

And the viability, T/C [22]?
The viability, T/C was 16%.

What about the viability, T/C [23] of the same molecule?
The viability, T/C was 14.2%.

And the viability, T/C [24]?
Its viability, T/C is 8.54%.
